Data set [1] in a line: Acute toxicity and survival observed in the CM model with ABT. The format is in vivo, mouse. The conditions noted are these: n = 5 mice/cohort; 7 days i.p. + ABT. On the procedure: (§1) ABT at 100 mg/kg was administered orally to male CD-1 mice at 2 h prior to each APX compound dose. Mice were injected with 6.9 × 10^4 CFU of C. neoformans strain H99 per mouse via the lateral tail vein at time zero. Treatment with the APX compound was initiated at about 1 h postinfection by i.p. administration and continued for 7 days, with 100-mg/kg ABT being administered orally 2 h prior to each APX compound dose. […] Fungal burden data were log10 transformed and evaluated using Kruskal-Wallis tests with Dunn's multiple-comparison test for post hoc analysis (Prism software, v5; GraphPad Software, Inc., San Diego, CA). A P value of ≤0.05 was considered statistically significant (*, P ≤ 0.05; **, P ≤ 0.01). The 95% confidence interval (CI) is presented.
(§2) C. neoformans strain H99 was grown in yeast extract-peptone-dextrose broth at 30°C on a shaker (220 rpm) for 24 h, centrifuged (1,980 relative centrifugal force), and washed twice in phosphate-buffered saline (PBS), resuspended in PBS, and quantified by hemacytometric count. Male CD-1 mice were infected with ∼5 × 10^4 CFU per mouse via lateral tail vein injection of 100 μl. Mice were weighed, and treatment was begun within 1 h after infection. Treatments were administered daily for 7 days. Mice were weighed daily and observed for acute and chronic adverse symptoms. Mice were sacrificed on day 8, and the brain and left lung were homogenized and cultured for quantitative determination of the tissue burden (number of CFU per gram of tissue). Tissues were homogenized for 25 s in 1 ml phosphate-buffered saline using two 6.5-mm steel beads and a Mini-Beadbeater 16 apparatus (Biospec Products, Inc., Bartlesville, OK) and serially diluted in 10-fold steps. Aliquots (100 μl) of homogenate were plated and incubated for 3 to 7 days at 37°C. Fungal burden data were log10 transformed and evaluated using Kruskal-Wallis tests with Dunn's multiple-comparison test for post hoc analysis (Prism software, v5; GraphPad Software, Inc., San Diego, CA). A P value of ≤0.05 was considered statistically significant.

In data set [2] the test system is C. neoformans strain H99. The experiment in a line: Murine cryptococcal meningitis model with ABT pretreatment (preliminary experiment). In kind it is in vivo, Cryptococcus neoformans. On the procedure:
In a preliminary experiment, the efficacies of APX001, APX2096, and APX2097 were evaluated in the disseminated model of CM (n = 5 mice/cohort). ABT at 100 mg/kg was administered orally to male CD-1 mice 2 h prior to APX compound administration. Mice were injected with 6.9 × 10^4 CFU of C. neoformans strain H99 per mouse via the lateral tail vein at time zero. Treatment with each prodrug was initiated at about 1 h postinfection by i.p. administration and continued daily for 7 days, with 100-mg/kg ABT being administered orally 2 h prior to each APX compound dose.
as §1, §2

Details of data set [3]: method as in ref 11, 12 = [11]; 11. Hodges MR , Ople E , Shaw KJ , Mansbach RS , van Marle S , van Hoogdalem E , Kramer W , Wedel P 2017 Phase 1 study to assess safety, tolerability and pharmacokinetics of single and multiple oral d || [12]; 12. Hodges MR , Ople E , Shaw KJ , Mansbach RS , van Marle S , van Hoogdalem E , Wedel P , Kramer W 2017 First-in-human study to assess safety, tolerability and pharmacokinetics of APX001 administered. As to conditions: cited from earlier work.

The test system of data set [4] is C. neoformans strain H99. The experiment in a line: Murine model of cryptococcal meningitis, APX001 alone and with FLC (no ABT). The format is in vivo, Cryptococcus neoformans. Here is the method:
The efficacies of APX001 and FLC were evaluated in a well-established mouse CM model ([34]). Since Cryptococcus infections can be hematogenously disseminated to other organs, the numbers of CFU in both lung and brain tissue were evaluated. Male CD-1 mice were infected with 5.9 × 10^4 CFU of C. neoformans strain H99 via lateral tail vein injection. Mice were assigned to four groups (n = 10), consisting of (i) treatment with APX001, (ii) treatment with APX001 plus FLC, (iii) treatment with FLC, or (iv) no treatment as a control. Treatment was initiated within 1 h after infection. APX001 was administered by oral gavage at a dose of 390 mg/kg thrice daily (TID), with each dose being administered roughly 8 h apart. […] FLC (2 mg/ml; Sagent Pharmaceuticals, Schaumburg, IL) was administered at a dose of 80 mg/kg/day intraperitoneally (i.p.).
Brain and lung burdens in mice were measured at 7 days postinfection with C. neoformans H99. Male CD-1 mice were infected with 5.9 × 10^4 CFU of C. neoformans strain H99 via the lateral tail vein. Treatment was initiated at about 1 h postinfection and continued for 7 days. APX001 was administered by oral gavage at a dose of 390 mg/kg thrice daily, with each dose being administered roughly 8 h apart. FLC (2 mg/ml; Sagent Pharmaceuticals, Schaumburg, IL) was administered at a dose of 80 mg/kg/day i.p. once daily. Fungal burden data were log10 transformed and evaluated using Kruskal-Wallis tests with Dunn's multiple-comparison test for post hoc analysis (Prism software, v5; GraphPad Software, Inc., San Diego, CA). A P value of ≤0.05 was considered statistically significant (*, P ≤ 0.05; **, P ≤ 0.01; ***, P ≤ 0.001). The 95% confidence interval (CI) is presented.
as §2

The text on data set [5]:
For pharmacokinetic and efficacy studies, the prodrugs APX001, APX2096, APX2097, and APX2104 (Amplyx Pharmaceuticals) were used. […] The prodrugs APX2096, APX2097, and APX2104 were formulated similarly to enable oral and i.p. dosing of compounds for pharmacokinetic and efficacy studies.

The subject of another data set is C. albicans. On the set-up: method as in ref 23 = [23]; 23. Zhao Y , Lee M , Lee A , Paderu P , Park S , Perlin DS 2018 APX001 is effective against echinocandin and multi-drug resistant Candida isolates . Abstr 28th ECCMID , Madrid, Spain . As to conditions: after ABT administration, after 48 h; cited from earlier work.
The mark [6] stands for this setting: 80 mg/kg in the presence of ABT.
Where [7] appears, read: 85 mg/kg QD i.p. + ABT 100 mg/kg p.o., 7 days.
[8] abbreviates: APX001 390 mg/kg TID oral plus FLC 80 mg/kg/day i.p., 7 days.
[9] abbreviates: monotherapy 7 days, APX001 390 mg/kg TID oral gavage, FLC 80 mg/kg/day i.p., male CD-1 mice.

Molecules are shown by their SMILES. Where “and” joins values, the source holds several entries; their conditions need not be identical. Equal entries are not always repeated.

For orientation: bioavailability means dose-corrected exposure relative to a reference, in per cent.

`Nc1c(-c2cc(Cc3ccc(COc4ccccn4)cc3)no2)ccc[n+]1COP(=O)([O-])O` [APX001]: in data set [1], the “final numbers of surviving mice” value is 5. In addition, the “reduction in lung fungal burden” value in the data set with C. neoformans strain H99 [2] (34 mg/kg QD i.p. + ABT 100 mg/kg p.o., 7 days) is “neither the 34-mg/kg nor the 85-mg/kg dose of APX001 achieved a statistically significant reduction”. Besides, in the data set with C. neoformans strain H99 [2] (setting [6]), the “reduction in brain fungal burden” value is 0.85 log10 CFU/g and the “reduction in lung fungal burden” value is given as 0.9 log10 CFU/g. For the same compound, in the data set on C. neoformans strain H99 [2] (setting [7]), the “reduction in brain fungal burden” value came out at 0.85 log10 CFU/g and the “reduction in lung fungal burden” value is “neither the 34-mg/kg nor the 85-mg/kg dose of APX001 achieved a statistically significant reduction”. In addition, in data set [3] (phase 1 clinical trials), the bioavailability was greater than 90%. Also, the half-life in humans in data set [3] (phase 1 studies in healthy volunteers) is 60 h. Also, in the data set on C. neoformans strain H99 [4] (setting [8]), the “reduction in brain fungal burden vs untreated control, combination of APX001 and FLC” value was 3.52 log10 CFU/g and 3.51 log10 CFU/g; the “reduction in lung fungal burden vs untreated control, combined therapy” value turned out to be 1.84 log10 CFU/g. In the data set with C. neoformans strain H99 [4] (setting [9]), the “reduction in brain fungal burden vs untreated control” value is recorded as 0.78 log10 CFU/g; the “reduction in lung fungal burden vs untreated control” value was 1.50 log10 CFU/g and 1.5 log10 CFU/g. In addition, in data set [5], the solubility in water result is recorded as “soluble in water”. In addition, in the data set on C. albicans, the “reduction of C. albicans kidney burdens” value was 6.0 ± 0.1 log10 CFU/g kidney tissue.

(Values after publication PMC6105804, “In Vitro and In Vivo Evaluation of APX001A/APX001 and Other Gwt1 Inhibitors against Cryptococcus” (Antimicrobial Agents and Chemotherapy, 2018).)
